row,Compound,melting point
1,CCCCc1nc2c(N)nc3ccccc3c2n1OC,197 to 199 °C
2,COc1ccccc1C(=O)c1cccnn1,125 to 126 °C
3,COc1ccc(CNc2n[nH]c3ncnc(Nc4cccc(Cl)c4)c23)cc1,222 to 223 °C
4,CC(CCNC(=O)C(C#N)=Cc1ccc(O)c(O)c1)NC(=O)C(C#N)=Cc1ccc(O)c(O)c1 (stereo not drawn),281 °C
5,CN(CCCCOCC(=O)O)c1nnc(-c2ccccc2)c(-c2ccccc2)n1,108 to 110 °C
6,NC(=O)C=Cc1ccc(NC(=O)C=C2CC(C(=O)OCc3ccccc3)Nc3cc(Cl)cc(Cl)c32)cc1 (racemic),> 250 °C
7,CC(=O)SC(CC(=O)c1ccc(C)cc1C)C(=O)O (stereo not drawn),101 to 102 °C
8,Cc1[nH]c2ccccc2c1C(=O)CCn1ccnc1,196 to 197 °C
9,O=C(O)c1cc(-c2ccc(Cl)cc2)nc(-c2ccc(Oc3ccc(F)cc3)cc2)c1,201 to 202 °C
10,CNC(=O)CNC(=O)c1cccc(-c2cccc3oc(Cc4cccc(C(F)(F)F)c4)cc23)c1,135 to 139 °C
11,O[C@@H]1[C@H](O)[C@H](O)CO[C@H]1n1c(Br)nc2ccc(Cl)cc21,100 °C
12,COC(=O)CCc1ccc(Oc2ccc(-c3ccc(C(=N)N)cc3)nn2)cc1,178 to 181 °C
13,Cc1c(C)c(N2CCN(c3ccc(CN(C)C)cc3)CC2)c(C)c2c1OC(C)(C)C2,134 to 138 °C
14,COc1cc([C@@H](O)[C@@H](C)N2CCC(O)(c3ccccc3)CC2)ccc1O (relative stereo),188 °C
15,CC(C)c1cc(CO)cc(C(C)C)c1NC(=O)CN1CCN(CCSc2nc3cccc(C(F)(F)F)c3o2)CC1,146 to 148 °C
16,CCN=c1[nH]c2ccccc2c2nc(-c3ccco3)nn12,133 to 135 °C
17,O=C(NO)c1ccc2c(c1)CN(C(=O)OCc1cccnc1)C2,196 to 199 °C
18,CN(C)c1ccc(S(=O)(=O)N2CCCC2=O)cc1,202 to 204 °C
19,C#CCOC1c2ccccc2Oc2ccccc21,74 to 76 °C
20,CC(C)(C)OC(=O)NC(COCc1ccccc1)c1nc2c(C(F)(F)F)cccc2c(=O)o1 (stereo not drawn),98 °C
21,O=C(O)COc1cccc(C=Cc2nc(-c3ccccc3)c(-c3ccccc3)o2)c1,213 to 215 °C
22,COc1c(C)c(N)c2c(c1C)C(c1ccc(C(C)C)cc1)C(C)(C)O2 (stereo not drawn),111 to 112 °C
23,CC(=O)NC[C@@H]1C[C@H]1c1cccc2nn(C)cc12 (relative stereo),145 to 147 °C
24,CCN(CC)CCN1C(=O)Nc2cnccc2C1c1ccccc1 (stereo not drawn),138 to 140 °C
25,COc1ccc(Cn2nc(-c3ccc(C(=O)N4Cc5cccnc5Nc5ccccc54)c(Cl)c3)nc2C)cc1,218 to 221 °C

row,Compound,melting point
1,COC1=CC(=O)c2c(C)cccc2C1=O,138 to 140 °C
2,COCc1c(Cl)ccc(C(=O)c2cnoc2C2CC2)c1S(C)(=O)=O,83.6 to 84.2 °C
3,CCOC(=O)COc1ccc(C2OCCCO2)cc1NC(=O)c1ccc(OCCCCc2ccccc2)cc1,73 °C
4,CC(C)Nc1nc(C(=O)O)cn1C,247 °C
5,COC(=O)c1cccc(Nc2nc(Cl)nc3[nH]cnc23)c1,242 °C
6,Oc1cc(O)nc(C2CC2)n1,> 290 °C
7,COc1ccc2sn(C(C)(C)C)c(=O)c2c1,92 to 94 °C
8,COc1c(Br)ccc2oc(C=O)c(C)c12,81 to 82 °C
9,CCC(C)(C)c1ccc(OCCCCSC2C(=O)N(c3c(Cl)cc(Cl)cc3Cl)N=C2Nc2ccc(Cl)cc2Cl)c(C(C)(C)CC)c1 (stereo not drawn),142 to 144 °C
10,COC(=O)CSc1cc(NC(=O)OC(C)(C)C)c([N+](=O)[O-])cc1I,110 to 112 °C
11,Nc1ccc(Nc2ccc(S(=O)(=O)CCO)cc2[N+](=O)[O-])cc1S(=O)(=O)O,204 °C
12,COc1cc(C)c(C=O)c(OC)c1OC,55 to 57 °C
13,O=c1ccc2cc(C(c3ccccc3)n3ccnc3)ccc2[nH]1 (stereo not drawn),227 °C
14,CCOC(=O)C1CCc2c(n(C(=O)c3ccc(Cl)cc3)c3ccc(Cl)cc23)C1 (stereo not drawn),129 to 132 °C
15,CCN(CC)C(=O)Oc1nc(-c2ccc(OC)cc2)cc2ccccc12,84 °C
16,Nc1ccccc1-c1ncn[nH]1,145 to 148 °C
17,O=Cc1ccc(OCC=Cc2ccccc2)cc1,89.5 to 90.5 °C
18,O=[N+]([O-])c1cc(Cl)c(OCC(F)(F)C(F)(F)F)c(Cl)c1F,62 to 63 °C
19,CCc1c(-c2ccc(OCc3ccccc3)cc2)c2cc(C(=O)O)c3c(NC(C)=O)ccc1n23,244 to 246 °C
20,CCOC(=O)Cc1nc(-c2ccc(Cl)cc2)oc1Oc1cc(C)ccc1C,122 to 124 °C
21,CC(C)Oc1ccc(CCCCOc2cc(CCC(=O)O)n(-c3ccccc3)n2)c(Oc2ncc(C(F)(F)F)cc2Cl)c1,75 to 77 °C
22,CS(=O)(=O)c1cccc(NC(=O)c2cnn3c(C(F)F)cc(-c4ccc(C(F)(F)F)c(Cl)c4)nc23)c1,228 °C
23,Nc1ccc2ccc(-c3cccc(F)c3)nc2n1,160 °C
24,CC(C)OC(=O)Cc1ccc2c(c1)C(=O)c1ccccc1CO2,67 to 68.5 °C
25,FC(F)(F)c1cccc(N2CCC(N=Cc3ccc[nH]3)=N2)c1,144 to 145 °C

row,Compound,melting point
1,O=C(O)CCOc1ccc2c(c1)CCO2,131 to 132 °C
2,CC(=O)Nc1cccc(-c2ccc3nc(-c4cccnc4N)n(-c4ccc(CNS(=O)(=O)c5cn(C)cn5)cc4)c3n2)c1,190 to 192 °C
3,CC1(C)OC[C@@H](CNc2ccc3cc(OCC4CC4)ccc3c2)O1,108 to 109 °C
4,Cc1ccc(N2C(=O)C(O)=C(C(=O)c3ccc(C(C)C)cc3)C2c2ccc(Cn3ncnn3)cc2)nn1 (stereo not drawn),271 °C
5,CCCN1CCC(c2c[nH]c3ccc(NS(C)(=O)=O)cc23)CC1,87 to 90 °C
6,Cc1cc(Cl)cc(C(=O)NCC(C)O)c1NC(=O)c1cc(C(F)(F)F)nn1-c1ncccc1Cl (stereo not drawn),193 to 197 °C
7,CC(=O)NCC1CN(c2ccc3c(c2)CC(CO)N3C=O)C(=O)O1 (stereo not drawn),132 to 136 °C
8,O=C(O)c1cn(C2CC2)c2nc(N3CCC(c4ccncc4)C3)c(F)cc2c1=O (stereo not drawn),223 to 225 °C
9,CC(C)c1nnn(-c2c(Cl)cccc2Cl)c1CO,154 to 155 °C
10,Cc1c(C)c2c(c(C)c1Br)C(=O)C(C)(C)O2,92 to 93 °C
11,CCOC(=O)CCNC(=O)Oc1c(C)n(C)ccc1=O,171 to 173 °C
12,COc1cc(C=C(C)[N+](=O)[O-])c(OC)c(C)c1C,76 to 81 °C
13,NN(CCO)c1ccc(-c2ccc(Cl)cc2)nn1,172 to 174 °C
14,Cc1cc(C)c2cc(C3CCNCC3)sc2c1,83 to 88 °C
15,CC1CN(c2nnc(N3CCOC(C)C3)c3cc(-c4ccccc4)ncc23)CCO1 (stereo not drawn),75 to 81 °C
16,CCCCN(C)C(=NC#N)NCc1cccnc1,65 to 69 °C
17,CCCc1nc2c(N)nc3ccccc3c2n1CCCCCC(=O)N(C)OC,134 to 135 °C
18,CCOC(=O)C1CCN(Cc2c[nH]c3cccc(F)c23)CC1,96 to 105 °C
19,CCCOc1ccccc1C1=NC(=O)C2=NC(S)=NC2=N1,305 to 307 °C
20,CC(C)(C)NC(=O)c1nn(-c2ccc(C(C)(C)C)cc2)c2c1C1CCC2C1 (stereo not drawn),148 to 150 °C
21,CCOC(=O)CN1C(=O)C(NC(=O)Nc2ccc(Cl)cc2)N=C(c2ccccc2)c2ccccc21 (stereo not drawn),228 to 229 °C
22,CS(=O)C1C(=O)Nc2ccc(C(F)(F)F)cc21 (stereo not drawn),141 to 142 °C
23,CC(C)CCSC1CC(CO)OC1n1ccc(=O)[nH]c1=O (stereo not drawn),131 to 133 °C
24,O=C(O)c1ccc2oc(-c3ccc(Cl)c(Cl)c3)cc2c1,> 260 °C
25,O=C1N[C@H](CCl)[C@@H]1N1C(=O)c2ccccc2C1=O (relative stereo),172 °C

row,Compound,melting point
1,Cn1nc(N)c2c(=O)n3c(nc21)SCC3,280 to 283 °C
2,CC(=O)N1CCN(Cc2cnc(-c3cc4cccc(NS(=O)(=O)c5cccs5)c4[nH]3)s2)CC1,149 to 150 °C
3,CCCC(=O)Nc1cc2c(s1)CCN(C(C(=O)C1CC1)c1ccccc1F)C2 (stereo not drawn),154 to 157 °C
4,O=C(Nc1ccc(-n2nc(C(F)(F)F)cc2C(F)(F)F)cc1)c1cc([N+](=O)[O-])cc([N+](=O)[O-])c1,> 230 °C
5,CCN1CN2C(=N1)C(c1ccccc1Cl)=NCc1ccsc12,153 to 154 °C
6,COc1nc2ccccc2n(-c2ccc(Cl)cc2)c1=O,245 to 247 °C
7,COc1cc(C(=O)N(C(C)C)C2CCCCC2)ccc1Cn1c(C)nc2ncccc21,201 to 203 °C
8,Cc1cc(C2(C(F)(F)F)CC(c3ccc(C(N)=O)cc3)=NO2)ccc1NC(=O)c1cccc(I)c1C(=O)NC(C)C (stereo not drawn),173 to 175 °C
9,C=C(C)C(=O)Nc1cccc(O)c1,171 to 173 °C
10,CC(Oc1ncn(-c2cccc(Br)c2)n1)C(=O)O (stereo not drawn),198 to 200 °C
11,CCOC(=O)CCC1NC(=O)CN1Cc1ccccc1 (stereo not drawn),60 to 62 °C
12,CCC1(C)C(=O)c2cc(OC)c(Cl)c(Cl)c2C1=O (stereo not drawn),157 °C
13,CCc1cccc(CNC[C@@H](O)[C@H](Cc2cc(F)cc(F)c2)NC(=O)c2ccc3ccncc3c2)c1,142 to 143 °C
14,CCCCCCCCCC=COC1OC(CO)C(O)C(O)C1NC(C)=O (stereo not drawn),152 to 154 °C
15,O=C(O)CS(=O)(=O)C12CC3CC(CC(C3)C1)C2,158 to 162 °C
16,COc1cc(-c2ccc(Cl)cc2)ccc1COCCc1cccc(NS(=O)(=O)C(F)(F)F)c1,66 to 68 °C
17,CC(C)(C)OC(=O)NCc1cccc2c1C(=O)N(C1CCC(=O)NC1=O)C2=O (stereo not drawn),180 to 182 °C
18,COc1cc2nc(SCc3nccc(N4CCOCC4)c3Cl)[nH]c2cc1OC,109 to 112 °C
19,CCOC(=O)c1ccc2c(c1)C(=O)CC(c1ccccc1)=N2,> 300 °C
20,COc1ccc2c(OCc3cc(OC)c(F)cc3Br)cccc2c1,138 to 142 °C
21,C=CCC1(C(C)(C)C(=O)OCC)C(=O)NC(=O)NC1=O,112 to 114 °C
22,CC(C)(O)c1nnn(Cc2cccc(C(F)(F)F)c2)c1I,77 to 80 °C
23,CCN(CC)C1CCN(c2ccc(-c3[nH]nc4c3C(=O)c3c(NC(=O)NN5CCOCC5)cccc3-4)cc2)CC1,251 °C

# Source: a melting point compilation (Tetko et al.; mined from patent text by program, amines drawn as free bases though some values may be those of a salt)
